The test system of the assay is JR251 or RBL cells. Kind of assay: Store-operated calcium entry, either JR251 or RBL cells, or both. Type of assay: cell-based. Summed up: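 Orai1/STIM1 stable cells: fluo-4-AM loaded, compound 30 min at RT in Ca2+-free HBSS, then CaCl2 added; IC50 from Peak-Basal FLIPR fluorescence. RBL-2H3 cells: compound 5 min, then thapsigargin (5.5× stock, 5.5 uM) 25 min, then calcium added; IC50 from Upslope (signal 7 s after calcium minus baseline).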

For orientation: IC50 means the point on the concentration scale where inhibition reaches its midpoint. With `O=C(O)c1c(-c2ccc(Cl)cc2)csc1NC(=O)C1Cc2c(F)cccc2S1` (centres unmarked) [4-(4-chlorophenyl)-2-(4-fluoro-2,3-dihydrobenzo[b]thiophene-2-carboxamido)thiophene-3-carboxylic acid], the IC50 was less than 10 µM. As to `O=C(Nc1scc(-c2ccc(Cl)cc2)c1C(=O)O)c1nc2c(F)cccc2o1` [4-(4-chlorophenyl)-2-(4-fluorobenzo[d]oxazole-2-carboxamido)thiophene-3-carboxylic acid], the half-maximal inhibitory concentration (IC50) is less than 10 µM. To `O=C(Nc1scc(-c2ccc(Cl)cc2)c1C(=O)O)c1nc2c(F)cccc2s1` [4-(4-chlorophenyl)-2-(4-fluorobenzo[d]thiazole-2-carboxamido)thiophene-3-carboxylic acid] belongs less than 10 µM; to `O=C(Nc1scc(-c2ccc(Cl)cc2)c1C(=O)O)c1cc2c(F)cccn2n1` [4-(4-chlorophenyl)-2-(4-fluoropyrazolo[1,5-a]pyridine-2-carboxamido)thiophene-3-carboxylic acid], less than 10 µM.

Regarding `O=C(Nc1scc(-c2ccc(Cl)cc2)c1C(=O)O)c1nc2c(O)cccc2o1` [4-(4-chlorophenyl)-2-(4-hydroxybenzo[d]oxazole-2-carboxamido)thiophene-3-carboxylic acid], the IC50 was less than 10 µM. As for `Cc1nnsc1C(=O)Nc1scc(-c2ccc(Cl)cc2)c1C(=O)O` [4-(4-chlorophenyl)-2-(4-methyl-1,2,3-thiadiazole-5-carboxamido)thiophene-3-carboxylic acid], the 50% inhibitory concentration (IC50) was less than 10 µM. For `Cc1cccc2oc(C(=O)Nc3scc(-c4ccc(Cl)cc4)c3C(=O)O)nc12` [4-(4-chlorophenyl)-2-(4-methylbenzo[d]oxazole-2-carboxamido)thiophene-3-carboxylic acid], the IC50 is less than 10 µM.

With `O=C(Nc1scc(-c2ccc(Cl)cc2)c1C(=O)O)c1nc2c([N+](=O)[O-])cccc2s1` [4-(4-chlorophenyl)-2-(4-nitrobenzo[d]thiazole-2-carboxamido)thiophene-3-carboxylic acid], the 50% inhibitory concentration (IC50) was less than 10 µM. For `O=C1CC(C(=O)Nc2scc(-c3ccc(Cl)cc3)c2C(=O)O)Cc2ccccc21` (centres unmarked) [4-(4-chlorophenyl)-2-(4-oxo-1,2,3,4-tetrahydronaphthalene-2-carboxamido)thiophene-3-carboxylic acid] the value was less than 10 µM; for `O=C(CCCc1ccccc1)Nc1scc(-c2ccc(Cl)cc2)c1C(=O)O` [4-(4-chlorophenyl)-2-(4-phenylbutanamido)thiophene-3-carboxylic acid], less than 10 µM.

Turning to `O=C(Nc1scc(-c2ccc(Cl)cc2)c1C(=O)O)c1nccc(-c2ccccc2)n1` [4-(4-chlorophenyl)-2-(4-phenylpyrimidine-2-carboxamido)thiophene-3-carboxylic acid], the half-inhibitory concentration (IC50) was less than 10 µM.

For the compound `O=C(Nc1scc(-c2ccc(Cl)cc2)c1C(=O)O)c1cc2occc2[nH]1` [4-(4-chlorophenyl)-2-(4H-furo[3,2-b]pyrrole-5-carboxamido)thiophene-3-carboxylic acid], the IC50 was less than 10 µM.

For the compound `O=C(Nc1scc(-c2ccc(Cl)cc2)c1C(=O)O)c1cc2sccc2[nH]1` [4-(4-chlorophenyl)-2-(4H-thieno[3,2-b]pyrrole-5-carboxamido)thiophene-3-carboxylic acid], the IC50 is less than 10 µM. To `O=C(Nc1scc(-c2ccc(Cl)cc2)c1C(=O)O)c1ccc(-c2ccc(Cl)cc2)o1` [4-(4-chlorophenyl)-2-(5-(4-chlorophenyl)furan-2-carboxamido)thiophene-3-carboxylic acid] belongs less than 10 µM; to `Cn1nc(C(=O)Nc2scc(-c3ccc(Cl)cc3)c2C(=O)O)cc1-c1ccco1` [4-(4-chlorophenyl)-2-(5-(furan-2-yl)-1-methyl-1H-pyrazole-3-carboxamido)thiophene-3-carboxylic acid], less than 10 µM; to `O=C(Nc1scc(-c2ccc(Cl)cc2)c1C(=O)O)c1ncc(C(F)(F)F)cn1` [4-(4-chlorophenyl)-2-(5-(trifluoromethyl)pyrimidine-2-carboxamido)thiophene-3-carboxylic acid], less than 10 µM.

In the case of `O=C(O)c1c(-c2ccc(Cl)cc2)csc1NC(=O)C1Cc2ccc(F)cc2C1` (centres unmarked) [4-(4-chlorophenyl)-2-(5-fluoro-2,3-dihydro-1H-indene-2-carboxamido)thiophene-3-carboxylic acid], the 50% inhibitory concentration (IC50) was less than 10 µM. Take `O=C(Nc1scc(-c2ccc(Cl)cc2)c1C(=O)O)c1nc2cc(F)ccc2o1` [4-(4-chlorophenyl)-2-(5-fluorobenzo[d]oxazole-2-carboxamido)thiophene-3-carboxylic acid]: the IC50 is less than 10 µM. For `Cc1cnc(C(=O)Nc2scc(-c3ccc(Cl)cc3)c2C(=O)O)cn1` [4-(4-chlorophenyl)-2-(5-methylpyrazine-2-carboxamido)thiophene-3-carboxylic acid] the value was less than 10 µM. To `Cc1cccc2nc(C(=O)Nc3scc(-c4ccc(Cl)cc4)c3C(=O)O)cnc12` [4-(4-chlorophenyl)-2-(5-methylquinoxaline-2-carboxamido)thiophene-3-carboxylic acid] belongs less than 10 µM.

For `O=C(O)c1c(-c2ccc(Cl)cc2)csc1NC(=O)C1Cc2ccc([N+](=O)[O-])cc2C1` (centres unmarked) [4-(4-chlorophenyl)-2-(5-nitro-2,3-dihydro-1H-indene-2-carboxamido)thiophene-3-carboxylic acid], the IC50 is less than 10 µM. To `O=C(Nc1scc(-c2ccc(Cl)cc2)c1C(=O)O)c1ccc([N+](=O)[O-])o1` [4-(4-chlorophenyl)-2-(5-nitrofuran-2-carboxamido)thiophene-3-carboxylic acid] belongs less than 10 µM; to `O=C(Nc1scc(-c2ccc(Cl)cc2)c1C(=O)O)c1cc(-c2ccccc2)on1` [4-(4-chlorophenyl)-2-(5-phenylisoxazole-3-carboxamido)thiophene-3-carboxylic acid], less than 10 µM. For `O=C(CCCCc1ccccc1)Nc1scc(-c2ccc(Cl)cc2)c1C(=O)O` [4-(4-chlorophenyl)-2-(5-phenylpentanamido)thiophene-3-carboxylic acid] the value was less than 10 µM; for `O=C(Nc1scc(-c2ccc(Cl)cc2)c1C(=O)O)c1ncc(-c2ccccc2)cn1` [4-(4-chlorophenyl)-2-(5-phenylpyrimidine-2-carboxamido)thiophene-3-carboxylic acid], less than 10 µM. Consider `O=C(Nc1scc(-c2ccc(Cl)cc2)c1C(=O)O)c1ccc(-c2ccccc2)s1` [4-(4-chlorophenyl)-2-(5-phenylthiophene-2-carboxamido)thiophene-3-carboxylic acid], for which the IC50 was less than 10 µM. To `O=C(Nc1scc(-c2ccc(Cl)cc2)c1C(=O)O)c1ccc(C(F)(F)F)nc1` [4-(4-chlorophenyl)-2-(6-(trifluoromethyl)nicotinamido)thiophene-3-carboxylic acid] belongs less than 10 µM; to `O=C(Nc1scc(-c2ccc(Cl)cc2)c1C(=O)O)c1ccc(Cl)nn1` [4-(4-chlorophenyl)-2-(6-chloropyridazine-3-carboxamido)thiophene-3-carboxylic acid], less than 10 µM; to `O=C(Nc1scc(-c2ccc(Cl)cc2)c1C(=O)O)c1nc2ccc(F)cc2o1` [4-(4-chlorophenyl)-2-(6-fluorobenzo[d]oxazole-2-carboxamido)thiophene-3-carboxylic acid], less than 10 µM. For the compound `COc1cccc(C(=O)Nc2scc(-c3ccc(Cl)cc3)c2C(=O)O)n1` [4-(4-chlorophenyl)-2-(6-methoxypicolinamido)thiophene-3-carboxylic acid], the IC50 is less than 10 µM. For `Cc1ccc(C(=O)Nc2scc(-c3ccc(Cl)cc3)c2C(=O)O)cn1` [4-(4-chlorophenyl)-2-(6-methylnicotinamido)thiophene-3-carboxylic acid], the concentration for half-maximal inhibition (IC50) was less than 10 µM. On to `O=C(Nc1scc(-c2ccc(Cl)cc2)c1C(=O)O)c1nc2ccc([N+](=O)[O-])cc2s1` [4-(4-chlorophenyl)-2-(6-nitrobenzo[d]thiazole-2-carboxamido)thiophene-3-carboxylic acid], for which the IC50 was less than 10 µM. To `N#Cc1cccc2nc(C(=O)Nc3scc(-c4ccc(Cl)cc4)c3C(=O)O)oc12` [4-(4-chlorophenyl)-2-(7-cyanobenzo[d]oxazole-2-carboxamido)thiophene-3-carboxylic acid] belongs less than 10 µM.

On to `O=C(Nc1scc(-c2ccc(Cl)cc2)c1C(=O)O)c1nc2cccc(F)c2o1` [4-(4-chlorophenyl)-2-(7-fluorobenzo[d]oxazole-2-carboxamido)thiophene-3-carboxylic acid], for which the IC50 is less than 10 µM. On to `O=C(Nc1scc(-c2ccc(Cl)cc2)c1C(=O)O)c1nc2cccc(F)c2s1` [4-(4-chlorophenyl)-2-(7-fluorobenzo[d]thiazole-2-carboxamido)thiophene-3-carboxylic acid], for which the IC50 is less than 10 µM. To `Cc1cccc2nc(C(=O)Nc3scc(-c4ccc(Cl)cc4)c3C(=O)O)oc12` [4-(4-chlorophenyl)-2-(7-methylbenzo[d]oxazole-2-carboxamido)thiophene-3-carboxylic acid] belongs less than 10 µM; to `Cc1cccc2ncc(C(=O)Nc3scc(-c4ccc(Cl)cc4)c3C(=O)O)nc12` [4-(4-chlorophenyl)-2-(8-methylquinoxaline-2-carboxamido)thiophene-3-carboxylic acid], less than 10 µM; to `O=C(Nc1scc(-c2ccc(Cl)cc2)c1C(=O)O)c1cc2ccccc2nn1` [4-(4-chlorophenyl)-2-(cinnoline-3-carboxamido)thiophene-3-carboxylic acid], less than 10 µM.

Take `O=C(Nc1scc(-c2ccc(Cl)cc2)c1C(=O)O)c1ccco1` [4-(4-chlorophenyl)-2-(furan-2-carboxamido)thiophene-3-carboxylic acid]: the IC50 was less than 10 µM. To `O=C(Nc1scc(-c2ccc(Cl)cc2)c1C(=O)O)c1ccc2nccn2c1` [4-(4-chlorophenyl)-2-(imidazo[1,2-a]pyridine-6-carboxamido)thiophene-3-carboxylic acid] belongs less than 10 µM; to `O=C(Nc1scc(-c2ccc(Cl)cc2)c1C(=O)O)c1cn2ccsc2n1` [4-(4-chlorophenyl)-2-(imidazo[2,1-b]thiazole-6-carboxamido)thiophene-3-carboxylic acid], less than 10 µM.
